Test results taken from BigSolDB 2.1.

c1ccc2ccccc2c1
Details	solubility (mole fraction)
in acetone, 297.17 K	0.211
in acetone, 298.11 K	0.218
in acetone, 300.23 K	0.233
in acetone, 301.55 K	0.246
in acetone, 303.47 K	0.259
in acetone, 305.14 K	0.272
in acetone, 306.63 K	0.285
in acetone, 307.76 K	0.297
in acetone, 309.37 K	0.31
in acetone, 311.03 K	0.323
in acetone, 312.03 K	0.335
in acetone, 312.97 K	0.347
in acetone, 314.37 K	0.361
in acetone, 315.74 K	0.376
in acetone, 317.26 K	0.394
in acetone, 319.06 K	0.415
in acetone, 320.87 K	0.44
in acetone, 322.7 K	0.459
in ethanol, 304.26 K	0.0464
in ethanol, 307.44 K	0.0531
in ethanol, 309.53 K	0.0566
in ethanol, 311.93 K	0.0614
in ethanol, 314.52 K	0.0658
in ethanol, 315.93 K	0.0703
in ethanol, 318.07 K	0.076
in ethanol, 319.8 K	0.0816
in ethanol, 321.46 K	0.0876
in ethanol, 323.45 K	0.103
in ethanol, 325.68 K	0.116
in ethanol, 327.32 K	0.129
in ethanol, 329.34 K	0.14
in ethanol, 330.43 K	0.154
in ethanol, 332 K	0.174
in ethanol, 333.9 K	0.204
in ethanol, 335.9 K	0.238
in ethanol, 337.76 K	0.293
in ethanol, 339.76 K	0.382
in n-butanol, 313.77 K	0.113
in n-butanol, 315.17 K	0.119
in n-butanol, 317.98 K	0.139
in n-butanol, 320.74 K	0.159
in n-butanol, 323.67 K	0.183
in n-butanol, 325.6 K	0.205
in n-butanol, 327.76 K	0.228
in n-butanol, 329.03 K	0.252
in n-butanol, 331.8 K	0.294
in n-butanol, 333.65 K	0.333
in n-butanol, 335.1 K	0.375
in n-butanol, 337 K	0.436
in n-butanol, 338.15 K	0.477
in n-butanol, 339.63 K	0.526
in n-butanol, 340.65 K	0.567
in n-butanol, 342.04 K	0.62
in n-butanol, 342.8 K	0.66
in n-heptane, 290.25 K	0.0595
in n-heptane, 294.3 K	0.0705
in n-heptane, 297.85 K	0.0798
in n-heptane, 301.37 K	0.0889
in n-heptane, 303.04 K	0.0978
in n-heptane, 305.3 K	0.107
in n-heptane, 307.53 K	0.115
in n-heptane, 309.63 K	0.123
in n-heptane, 311.2 K	0.133
in n-heptane, 312.6 K	0.141
in n-heptane, 314.13 K	0.15
in n-heptane, 315.15 K	0.158
in n-heptane, 316.63 K	0.168
in n-heptane, 317.65 K	0.177
in n-heptane, 321.33 K	0.209
in n-heptane, 324.25 K	0.23
in n-heptane, 326.98 K	0.265
in n-heptane, 329.45 K	0.304
in n-heptane, 330.26 K	0.329
in n-heptane, 331.5 K	0.35
in n-heptane, 333.75 K	0.389
in toluene, 291.35 K	0.239
in toluene, 301.45 K	0.31
in toluene, 304.54 K	0.34
in toluene, 308.53 K	0.374
in toluene, 311.93 K	0.406
in toluene, 315.25 K	0.439
in toluene, 318.55 K	0.472
in toluene, 322.23 K	0.503
in toluene, 324.37 K	0.537
in toluene, 327.55 K	0.589
in toluene, 331.35 K	0.637
in toluene, 334.65 K	0.677
